According to paper PMC5484141, “Asperentin B, a New Inhibitor of the Protein Tyrosine Phosphatase 1B” (Marine Drugs, 2017):
In brackets after ≈: the same amount, converted by molar mass. Several values for one entry are separate records, joined by “and”; a condition that tells them apart may be missing. Equal values may be shown once. Entries after “also recorded” stand apart in the source; their conditions may differ. Read-outs that look alike come from different tables or passages of the source.

Legend:
leukemia cell line P388 = system: leukemia cell line P388; parameters: method as in PMID 17958319; conditions: cited from earlier work
PTP1B [1] = system: PTP1B; parameters: method as in PMID 25819098; conditions: read-out: IC50 value against PTP1B; cited from earlier work
[2] = target: T1, human recombinant protein tyrosine phosphatase 1B (PTP1B) (Homo sapiens, UniProt P18031); experiment: PTP1B inhibition assay with substrate IR5 (Biomol green phosphate detection); format: biochemical
T1 construct: purchased Biomol SE332-0050
Experimental: The effect of 1 and 2 on human recombinant protein tyrosine phosphatase 1B (PTP1B) was tested in microtiter plates. […] After warming for 10 min to the assay temperature of 30 °C 5 μL of human recombinant PTP1B (Biomol; CatNo. SE332-0050) stock solution (1 ng/μL) were added. The reaction was started with 50 μL of the substrate IR5 (insulin receptor amino acids 1142–1153 with pTyr at position 1146 (Biosyntan, Berlin, Germany) dissolved in PTP1B assay buffer to a concentration of 0.15 mM. The phosphopeptid IR5 comprises the amino acid sequence Thr-Arg-Asp-Ile-p[…]COOH and is part of the autophosphorylation domain of the insulin receptor (IR). After an incubation period of 25 min at 30°C the reaction was stopped by adding 150 μL of Biomol green (Biomol, CatNo. AK111-0250). PTP1B dephosphorylates the IR5 substrate resulting in the release of orthophosphate which was quantified after incubating for 20 min at 620 nm using the microtiter plate reader Infinite M200 (Tecan Group Ltd., Männedorf, Switzerland). […] IC50 values were determined as duplicates.

Propionibacterium acnes = experiment: Antimicrobial activity against Propionibacterium acnes; format: cell-based
Experimental: (§1) Antimicrobial activities of compounds 1 and 2 against Bacillus subtilis DSM 347, Staphylococcus lentus DSM 6672, Propionibacterium acnes, Xanthomonas campestris, and Septoria tritici, as well as the cytotoxic activity against the cell lines HepG3 (hepatocellular carcinoma) and HT29 (colon adenocarcinoma) were assayed as described by Schneemann et al. [27].

Xanthomonas campestris = experiment: Antimicrobial activity against Xanthomonas campestris; format: cell-based; conditions: concentrations of 100 μM (stated for 1)
Experimental: as §1

Septoria tritici = experiment: Antimicrobial activity against Septoria tritici; format: cell-based
Experimental: (§2) Antimicrobial activities of compounds 1 and 2 against Bacillus subtilis DSM 347, Staphylococcus lentus DSM 6672, Propionibacterium acnes, Xanthomonas campestris, and Septoria tritici, as well as the cytotoxic activity against the cell lines HepG3 (hepatocellular carcinoma) and HT29 (colon adenocarcinoma) were assayed as described by Schneemann et al. [27]. The effect on the growth of human pathogenic yeast, Candida albicans DSM 1386, was measured according to Ohlendorf et al. [28]. The activity of compound 2 against the dermatophyte Trichophyton mentagrophytes was tested as described by Nagel et al. [29].

[3] = system: Candida albicans DSM 1386; experiment: Growth of human pathogenic yeast Candida albicans; format: cell-based; conditions: concentrations of 100 μM
Experimental: as §2

[4] = system: Bacillus subtilis DSM 347; experiment: Antimicrobial activity against Bacillus subtilis; format: cell-based; conditions: concentrations of 100 μM (stated for 1)
Experimental: as §1

[5] = system: Staphylococcus lentus DSM 6672; experiment: Antimicrobial activity against Staphylococcus lentus; format: cell-based; conditions: concentrations of 100 μM (stated for 1)
Experimental: as §1

HepG2 = experiment: Cytotoxic activity against HepG2; format: cell-based; conditions: test concentrations up to 50 μM
Experimental: as §2

[6] = system: HT29 (colon adenocarcinoma); experiment: Cytotoxic activity against HT29; format: cell-based; conditions: test concentrations up to 50 μM (stated for 1)
Experimental: as §1

[7] = system: Trichophyton mentagrophytes; experiment: Activity against the dermatophyte Trichophyton mentagrophytes; format: cell-based; conditions: read-out: inhibition of T. mentagrophytes in comparison to the positive control clotrimazole, concentration of 100 μM
Experimental: as §2

[8] = system: dermatophytes, including Trichophyton rubrum; parameters: method as in PMID 5169000; conditions: cited from earlier work
Rhizoctonia solani = system: Rhizoctonia solani; parameters: method as in PMID 5169000; conditions: cited from earlier work
Arthrobacter citreus = system: Arthrobacter citreus; parameters: method as in PMID 646581; conditions: cited from earlier work
Bacillus brevis = system: Bacillus brevis; parameters: method as in PMID 646581; conditions: cited from earlier work
Sarcina lutea = system: Sarcina lutea; parameters: method as in PMID 646581; conditions: cited from earlier work
[9] = system: etiolated wheat coleoptile; parameters: method as in PMID 8229019; conditions: concentration of 1 mM; cited from earlier work
[10] = system: Colletotrichum gleosporoides; parameters: method as in PMID 25517217; conditions: cited from earlier work
Botrytis cinerea = system: Botrytis cinerea; parameters: method as in PMID 25517217; conditions: cited from earlier work
[11] = system: glycogen synthase kinase GSK-3 β; parameters: method as in PMID 27801816; conditions: cited from earlier work
PTP1B [12] = system: PTP1B; parameters: method as in earlier work; conditions: substrate p-nitrophenyl phosphate; ref 13 (McCain et al.); read-out: IC50 value against PTP1B; cited from earlier work
Micrococcus flavus = system: Micrococcus flavus; parameters: method as in PMID 5169000; conditions: cited from earlier work
[13] = parameters: method as in doi:10.1007/s11802-014-2216-2; conditions: cited from earlier work

T1 sequence (P18031 1-322 limits assumed): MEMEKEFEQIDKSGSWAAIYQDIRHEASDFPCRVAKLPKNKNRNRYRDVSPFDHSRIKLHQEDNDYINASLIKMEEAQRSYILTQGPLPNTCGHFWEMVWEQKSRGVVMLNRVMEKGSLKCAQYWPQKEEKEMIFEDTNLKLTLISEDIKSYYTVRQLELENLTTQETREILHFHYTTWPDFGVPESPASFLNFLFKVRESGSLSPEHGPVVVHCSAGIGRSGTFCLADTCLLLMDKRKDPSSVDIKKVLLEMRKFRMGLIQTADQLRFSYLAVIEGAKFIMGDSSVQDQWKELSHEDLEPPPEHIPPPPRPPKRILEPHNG

## CC(=O)C(C)c1oc(C)c(C)c(=O)c1C (stereo not shown) [2,3,5-trimethyl-6-(3-oxobutan-2-yl)-4H-pyran-4-one]
Leukemia cell line P388
  cytotoxic effects on P388: cytotoxic effects

## C/C=C/[C@H]1CC(=O)c2cc(C)c(O)c(C)c2O1 [(2R)-2,3-dihydro-7-hydroxy-6,8-dimethyl-2-[(E)-prop-1-enyl]chromen-4-one]
Leukemia cell line P388
  cytotoxic effects on P388: cytotoxic effects

## CCCCCCCCCCCCCCCC(=O)C1=C(O)[C@@H](CO)OC1=O [RK-682, (R)-4-Hydroxy-5-(hydroxymethyl)-3-(1-oxohexadecyl)-2(5H)-furanone]
PTP1B [1]
  IC50: 4.5 µM

## CC1CCCC(CC2Cc3c(O)c(O)cc(O)c3C(=O)O2)O1 (stereo not shown) [compound 1, Asperentin B]
[2]; in vitro, duplicates, read-out: IC50 value against PTP1B
  IC50: 2.05 µM and 2 µM
Propionibacterium acnes; Cutibacterium acnes, 100 μM test concentration
  inhibition at 100 µM: 57%
Xanthomonas campestris
  antibiotic activity against Xanthomonas campestris: No antibiotic activity; also recorded: did not exhibit
Septoria tritici; concentrations of 100 μM
  antibiotic activity against Septoria tritici (in words): No antibiotic activity
[3]
  antibiotic activity against Candida albicans: No antibiotic activity
[4]
  antibiotic activity against Bacillus subtilis: No antibiotic activity; also recorded: did not exhibit
[5]
  antibiotic activity against Staphylococcus lentus: No antibiotic activity; also recorded: did not exhibit
HepG2
  cytotoxic effects against HepG2: No activities were not found
[6]
  cytotoxic effects against HT29: did not exhibit cytotoxic activities

## C[C@H]1CCC[C@H](C[C@H]2Cc3cc(O)cc(O)c3C(=O)O2)O1 [compound 2, asperentin]
[2]
  inhibition of PTP1B enzymatic activity (in words): did not show any activity; also recorded: did not show any inhibition
Propionibacterium acnes
  activity against P. acnes (in words): did not show any activity
Xanthomonas campestris
  antibiotic activity against Xanthomonas campestris: did not exhibit
Septoria tritici; Zymoseptoria tritici, read-out: inhibition of S. tritici in comparison to the positive control clotrimazole, concentration of 100 μM
  inhibition at 100 µM: 83%
[4]
  antibiotic activity against Bacillus subtilis: did not exhibit; also recorded: not inhibited
[5]
  antibiotic activity against Staphylococcus lentus: did not exhibit
[6]
  cytotoxic effects against HT29: did not exhibit cytotoxic activities
[7]
  inhibition at 100 µM: 100%
[8]
  minimum inhibitory concentration (MIC), five dermatophytes including Trichophyton rubrum: 75 µg/mL (≈ 257 µM)
Rhizoctonia solani
  minimum inhibitory concentration (MIC), Rhizoctonia solani: 75 µg/mL (≈ 257 µM)
Arthrobacter citreus
  MIC, Arthrobacter citreus: 1 µg/mL (≈ 3.42 µM)
Bacillus brevis
  MIC, Bacillus brevis: 0.05 µg/mL (≈ 0.171 µM)
Sarcina lutea
  MIC, Sarcina lutea: 2000 µg/mL (≈ 6840 µM)
[9]
  growth inhibition, etiolated wheat coleoptile assay: 81%
[10]
  activity against Colletotrichum gleosporoides: active
Botrytis cinerea
  activity against Botrytis cinerea: active

## C[C@H]1CCC[C@@H](C[C@H]2Cc3cc(O)cc(O)c3C(=O)O2)O1 [isoasperentin, reference compound]
[9]
  growth inhibition, etiolated wheat coleoptile assay: 100%

## Cc1cc2cc(O)cc(O)c2c2oc(=O)cc(O)c12 [pannorin]
[11]
  inhibition of GSK-3 β (in words): inhibitor

## Cc1ccc(C(=O)Nc2ccc(S(=O)(=O)O)c3cc(S(=O)(=O)O)cc(S(=O)(=O)O)c23)cc1NC(=O)c1cccc(NC(=O)Nc2cccc(C(=O)Nc3cc(C(=O)Nc4ccc(S(=O)(=O)O)c5cc(S(=O)(=O)O)cc(S(=O)(=O)O)c45)ccc3C)c2)c1 [suramin]
PTP1B [12]
  IC50: 11 µM

## Monoacetyl asperentin [reference compound]
[8]
  MIC, four dermatophytes including Trichophyton rubrum: 75 µg/mL
Micrococcus flavus
  MIC, Micrococcus flavus: 75 µg/mL

## brevianamide W
[13]
  antioxidant activity: antioxidant activity

## dimethyl asperentin [reference compound]
Arthrobacter citreus
  MIC, Arthrobacter citreus: > 100 µg/mL
Bacillus brevis
  MIC, Bacillus brevis: 10 µg/mL
Sarcina lutea
  MIC, Sarcina lutea: > 100 µg/mL
